The record followed here is patent US20260098008A1, “COVALENT, CHEMOGENETIC ACTIVATORS FOR K2P POTASSIUM CHANNELS AND USES THEREOF” (THE REGENTS OF THE UNIVERSITY OF CALIFORNIA, priority 2022, published 2026).

The target in test [1] is T1, K2P2.1 (TREK-1) (Mus musculus, UniProt P97438).
T1 construct: expressed in transfected cells; host or cells: Xenopus laevis oocytes injected with mRNA (pGEMHE/pMO vector)
T1 sequence (P97438 1-411 isoform P97438-2): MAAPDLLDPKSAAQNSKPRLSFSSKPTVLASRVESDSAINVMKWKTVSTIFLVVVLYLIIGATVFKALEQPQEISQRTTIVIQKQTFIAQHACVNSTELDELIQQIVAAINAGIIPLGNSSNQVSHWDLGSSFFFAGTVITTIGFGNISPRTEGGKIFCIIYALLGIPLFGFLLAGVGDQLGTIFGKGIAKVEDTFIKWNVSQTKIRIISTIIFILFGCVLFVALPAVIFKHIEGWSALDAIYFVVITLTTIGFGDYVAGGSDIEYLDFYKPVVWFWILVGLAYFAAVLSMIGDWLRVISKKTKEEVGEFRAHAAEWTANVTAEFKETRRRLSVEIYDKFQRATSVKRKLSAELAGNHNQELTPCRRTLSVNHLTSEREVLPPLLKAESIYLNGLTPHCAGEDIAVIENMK
Nature of the test: Two-electrode voltage clamp (TEVC) in Xenopus oocytes. In kind it is cell-based. The following applies: for TREK-1 fold-activation: 20 uM, oocytes expressing TREK1; for TREK-1 activity class: Fold-activation at 20 uM in oocytes. The source says: (§1) Mouse K2P2.1 (TREK-1) (Genbank accession number: NP_034737.2), mouse K2P10.1 (TREK-2) (NM_001316665.1), mouse K2P4.1 (TRAAK) (NM_008431.3), human K2P4.1 (TRAAK) (NM_033310.2) and mouse K2P18.1(TRESK) (NM_207261.3) were used for this study. Point mutations were introduced by site-directed mutagenesis using custom primers and confirmed by sequencing before use. For studies using Xenopus oocytes, K2P channels were subcloned into a previously reported pGEMHE/pMO vector (46). For expression in HEK293 cells, mouse K2P2.1 (TREK-1) and mutants were expressed from a previously described pIRES2-EGFP vector in HEK293 cells (46,47). K2P2.1 (TREK-1) tandems were constructed by connecting the open reading frames for the individual subunits with a linker encoding the […] (SEQ ID NO: 19) sequence. Tandems used for HEK293 cells included an N-terminal HA tag ([…] (SEQ ID NO: 20)) on the first subunit.
(§2) Xenopus laevis oocytes were harvested according to UCSF IACUC Protocol AN129690 and digested using collagenase (Worthington Biochemical Corporation, #LS004183, 0.8-1.0 mg/mL) in Ca^21-free ND96 (96 mM NaCl, 2 mM KCl, 3.8 mM MgCl2, 5 mM HEPES pH 7.4) immediately post-harvest, as previously reported (31,33). Oocytes were maintained at 18° C. in ND96 (96 mM NaCl, 2 mM KCl, 1.8 mM CaCl2, 2 mM MgCl2, 5 mM HEPES pH 7.4) supplemented with antibiotics (100 units mL^−1 penicillin, 100 μg mL^−1 streptomycin, 50 μg mL^−1 gentimycin) and used for experiments within one week of harvest.
(§3) Defolliculated stage V-VI oocytes were microinjected with 0.5-36 ng mRNA and currents were recorded within 16-48 h hours of injection.
(§4) For recordings, oocytes were impaled with borosilicate recording microelectrodes (0.4-2.0 MΩ resistance) backfilled with 3 M KCl and were subjected to constant perfusion of ND96 at a rate of 3 ml min^−1. Recording solutions containing K2P activators were prepared immediately prior to use from DMSO stocks (20-100 mM), with final DMSO concentrations of 0.1%. Currents were evoked from a −80 mV holding potential followed by a 300 ms ramp from −150 mV to +50 mV. Data were recorded using a GeneClamp 500B amplifier (MDS Analytical Technologies) controlled by pCLAMP8 software (Molecular Devices), and digitized at 1 kHz using Digidata 1332 Å digitizer (MDS Analytical Technologies). For each recording, control solution (ND96) was perfused over a single oocyte until current was stable before switching to solutions containing the test compounds at various concentrations. Representative traces and dose response plots were generated in GraphPad Prism 9.

Test [2] addresses T2, TREK-1^CG* (K2P2.1 (TREK-1) S131C) (Mus musculus, UniProt P97438, S146C).
T2 construct: expressed in transfected cells; host or cells: Xenopus laevis oocytes injected with mRNA
T2 sequence (P97438 1-411 isoform P97438-2 S131C): T1 sequence (P97438 1-411 isoform P97438-2) with S131C
The test is described as follows: TEVC in Xenopus oocytes. In kind it is cell-based. The following applies: for Fold-activation (I activator/I control) / Reversibility of activation on washout: 20 μM, Xenopus oocytes; for Fold-activation (I activator/I control): 0 mV; for TREK-1 GC activity class: Fold-activation at 20 uM in oocytes.
Description: as §1, §2, §3, §4

Molecules are shown by their SMILES. Where a chain is given by its changes, count along the chain named.

Regarding `C#CCNC(=O)CC(=C)C(=O)Nc1ccc(C(=O)NCc2ccc(Cl)cc2Cl)cc1` [Entry 5], in test [1], the TREK-1 fold-activation was 7.0 fold and the TREK-1 activity class result is listed as “+++ (>5 fold)”. Consider `NC(=O)Nc1ccc(C(=O)NCc2ccc(Cl)cc2Cl)cc1` [Entry 35], for which, in test [1], the TREK-1 fold-activation worked out at 6.4 fold and the TREK-1 activity class entry is recorded as “+++ (>5 fold)”.

In test [1], `CN(Cc1ccc(Cl)cc1Cl)C(=O)c1ccc(NS(C)(=O)=O)cc1` [Entry 30] displayed a TREK-1 fold-activation of 1.0 fold. As to `O=C(NCc1ccc(Cl)cc1Cl)c1ccc(NCC2CO2)cc1` (stereo not shown) [Entry 27], in test [1], the TREK-1 fold-activation is 2.5 fold and the TREK-1 activity class result is “++ (2.5-5 fold)”. The matching figures for `CNS(=O)(=O)c1ccc(C(=O)NCc2ccc(Cl)cc2Cl)cc1` [Entry 36]: 3 fold and “++ (2.5-5 fold)”. The matching figures for `CC1(C)OB(Cc2ccc(C(=O)NCc3ccc(Cl)cc3Cl)cc2)OC1(C)C` [Entry 26]: 1.6 fold and “+ (1.5-2.5 fold)”. For `C=C(CC(=O)O)C(=O)Nc1ccc(C(=O)NCc2ccc(Cl)cc2Cl)cc1` [Entry 6] the same measures were 1.7 to 2.5 fold and “+ (1.5-2.5 fold)”. As for `CC1=CC(=O)N(c2ccc(C(=O)NCc3ccc(Cl)cc3Cl)cc2)C1=O` [CAT335a], in test [2], the “Fold-activation (I activator/I control)” value is on record as 7.4±0.7 fold and the “Reversibility of activation on washout” value is “irreversibly activate”. Consider `CC(NC(=O)c1ccc(NS(C)(=O)=O)cc1)c1ccc(Cl)cc1Cl` (stereo not shown) [Entry 32], for which, in test [1], the TREK-1 fold-activation was 1.2 fold. For `CC1=C(C)C(=O)N(c2ccc(C(=O)NCc3ccc(Cl)cc3Cl)cc2)C1=O` [CAT335b], in test [2], the “Fold-activation (I activator/I control)” value is on record as 4.9±0.6 fold and the “Reversibility of activation on washout” value is given as “partially reversible with washout”. Further, in test [2] (1 hour incubation, washout with buffer), the “Reversibility of activation after extended incubation” value is given as “remained reversible”. In the case of `C#CCNC(=O)CCCC1=CC(=O)N(c2ccc(C(=O)NCc3ccc(Cl)cc3Cl)cc2)C1=O` [Entry 18], the “TREK-1 GC activity class” value in test [2] is “++ (2.5-5 fold)”.

Regarding `CS(=O)(=O)Nc1ccc2c(c1)OCCN(Cc1ccc(Cl)cc1Cl)C2=O` [Entry 43], in test [1], the TREK-1 fold-activation came to 1.6 fold and the TREK-1 activity class entry was “+ (1.5-2.5 fold)”. The matching figures for `CS(=O)(=O)Nc1cccc(C(=O)NCc2ccc(Cl)cc2Cl)c1` [Entry 33]: 2.2 fold and “++ (2.5-5 fold)”. For the compound `C#CCN(C(=O)C=C)c1ccc(C(=O)NCc2ccc(Cl)cc2Cl)cc1` [Entry 9], the TREK-1 fold-activation in test [1] is on record as 1.0 fold. Turning to `CS(=O)(=O)Nc1ncc(C(=O)NCc2ccc(Cl)cc2Cl)cn1` [Entry 42], in test [1], the TREK-1 fold-activation is given as 1.4 fold and the TREK-1 activity class entry is given as “+ (1.5-2.5 fold)”.

As to `C=CC(=O)Nc1ccc(C(=O)NCc2ccc(Cl)cc2Cl)cc1` [Entry 1], the “TREK-1 GC activity class” value in test [2] is listed as “+++ (>5 fold)”. For the same compound, the TREK-1 activity class entry in test [1] is “+++ (>5 fold)”. `C=C1CC(=O)N(c2ccc(C(=O)NCc3ccc(Cl)cc3Cl)cc2)C1=O` [Entry 17]: the “TREK-1 GC activity class” value in test [2] is given as “++ (2.5-5 fold)”. For the same compound, in test [1], the TREK-1 activity class entry is recorded as “+ (1.5-2.5 fold)”.

`CS(=O)(=O)Nc1ccc2c(c1)CCN(Cc1ccc(Cl)cc1Cl)C2=O` [Entry 45] had a TREK-1 fold-activation in test [1] of 1.1 fold. In the case of `C/C=C/C(=O)Nc1ccc(C(=O)NCc2ccc(Cl)cc2Cl)cc1` [Entry 4], the TREK-1 fold-activation in test [1] is listed as 1.2 fold. As to `CS(=O)(=O)Nc1ccc(C(=O)NCc2ccc(Cl)c(F)c2)cc1` [Entry 39], in test [1], the TREK-1 fold-activation worked out at 1.5 fold and the TREK-1 activity class result is “+ (1.5-2.5 fold)”. In the case of `CS(=O)(=O)Nc1ccc(C(=O)NCc2ccc(Br)cc2Cl)cc1` [Entry 41], in test [1], the TREK-1 fold-activation was 3.3 fold and the TREK-1 activity class result is “++ (2.5-5 fold)”. In the case of `CC(NC(=O)c1ccc(NC(N)=O)cc1)c1ccc(Cl)cc1Cl` (stereo not shown) [Entry 31], the TREK-1 fold-activation in test [1] is 1.3 fold. Turning to `CNS(=O)(=O)c1ccc(C(=O)NCc2ccc(Cl)c(Cl)c2)cc1` [Entry 37], in test [1], the TREK-1 fold-activation is listed as 1.5 fold and the TREK-1 activity class entry is recorded as “+ (1.5-2.5 fold)”. For the compound `O=C(NCc1ccc(Cl)cc1Cl)c1cccc(B(O)O)c1` [Entry 24], in test [1], the TREK-1 fold-activation turned out to be 1.3 fold and the TREK-1 activity class entry is “+ (1.5-2.5 fold)”.

The compound `CC(NC(=O)c1ccc(NC(=O)NC(=O)C(Cl)(Cl)Cl)cc1)c1ccc(Cl)cc1Cl` (stereo not shown) [Entry 34] had a TREK-1 fold-activation in test [1] of 1.2 fold. As for `CCOC(=O)CCCC1=CC(=O)N(c2ccc(C(=O)NCc3ccc(Cl)cc3Cl)cc2)C1=O` [Entry 19], the “TREK-1 GC activity class” value in test [2] is given as “++ (2.5-5 fold)”. The compound `Cc1cc(Cl)cc(Cl)c1CNC(=O)c1ccc(NS(C)(=O)=O)cc1` [Entry 40] registered a TREK-1 fold-activation in test [1] of 1.1 fold. Still for that read-out and setting: next, `CS(=O)(=O)Nc1ccc2c(c1)CCCN(Cc1ccc(Cl)cc1Cl)C2=O` [Entry 44]: 1.0 fold; `C=CS(=O)(=O)Nc1ccc(C(=O)NCc2ccc(Cl)cc2Cl)cc1` [Entry 11]: 1.3 fold. In the case of `O=C(NCc1ccc(Cl)cc1Cl)c1ccc(CB(O)O)cc1` [Entry 25], in test [1], the TREK-1 fold-activation is 1.5 fold and the TREK-1 activity class result is reported as “+ (1.5-2.5 fold)”. With `O=C(/C=C/C(F)(F)F)Nc1ccc(C(=O)NCc2ccc(Cl)cc2Cl)cc1` [Entry 7], in test [1], the TREK-1 fold-activation was 1.0 fold.

For `O=C(NCc1ccc(Cl)cc1Cl)c1ccc(NC(=O)C(F)(F)F)cc1` [Entry 28], in test [1], the TREK-1 fold-activation was 3.3 fold and the TREK-1 activity class entry is reported as “++ (2.5-5 fold)”. As to `CS(=O)(=O)Nc1ccc(C(=O)NCc2ccc(Cl)c(Cl)c2)cc1` [Entry 38], in test [1], the TREK-1 fold-activation amounted to 4.8 fold and the TREK-1 activity class result is “+++ (>5 fold)”. With `O=C(NCc1ccc(Cl)cc1Cl)c1ccc(N2CCS2(=O)=O)cc1` [Entry 47], the “TREK-1 GC activity class” value in test [2] is “+ (1.5-2.5 fold)”. Consider `O=C(COCCOCCNC(=S)Nc1ccc2c(c1)C(=O)OC21c2ccc(O)cc2Oc2cc(O)ccc21)Nc1ccc(C(=O)NCc2ccc(Cl)cc2Cl)cc1` [Entry 46], for which, in test [1], the TREK-1 fold-activation amounted to 4 fold and the TREK-1 activity class entry is reported as “+++ (>5 fold)”. In test [1], `C=CC(=O)Nc1cccc(C(=O)NCc2ccc(Cl)cc2Cl)c1` [Entry 10] came in with a TREK-1 fold-activation of 1.2 fold.

As for `N#CCC(=O)Nc1ccc(C(=O)NCc2ccc(Cl)cc2Cl)cc1` [Entry 8], in test [1], the TREK-1 fold-activation is given as 3.6 fold and the TREK-1 activity class result is “++ (2.5-5 fold)”. Compound `O=C(NCc1ccc(Cl)cc1Cl)c1cccc(CB(O)O)c1` [Entry 23] displayed a TREK-1 fold-activation in test [1] of 1.0 fold.
